The record followed here is US9233979B2, “Compounds that are ERK inhibitors” (Merck Sharp & Dohme Corp., priority 2012, dated 2016).

Like-named read-outs stand apart in the source and are kept apart here.

In the experiment the target is phosphorylated active hERK2 enzyme (Homo sapiens (Human), UniProt P28482). As to the kind of experiment: Active Human ERK2 (hERK2) Activity Assay (IMAP-FP). It counts as biochemical. Particulars: 10 point titration, read-out: AERK2 IC50. The protocol:
Assays Active Human ERK2 (hERK2) Activity Assay:
Activated ERK2 activity was determined in an IMAP-FP assay (Molecular Devices). […] The final reaction in each well of 25 μL consists of 0.5 nM hERK2, 900 nM unlabeled peptide, 80 nM labeled-peptide, and 30 μM ATP. Phosphorylation reactions were allowed to proceed for 60 minutes and were immediately quenched by the addition of 60 μL IMAP detection beads (1:1000 dilutions) in IMAP binding buffer (Molecular Devices) with 24 mM NaCl. Plates were read on EnVision reader after 60 minutes binding equilibration using Fluorescence Polarization protocol (Perkin Elmer).

Setting [1] is: Table 5, 0.5 nM hERK2, 30 μM ATP.
Where [2] appears, read: Table 6, 0.5 nM hERK2, 30 μM ATP.

Chain of phosphorylated active hERK2 enzyme (P28482 whole entry): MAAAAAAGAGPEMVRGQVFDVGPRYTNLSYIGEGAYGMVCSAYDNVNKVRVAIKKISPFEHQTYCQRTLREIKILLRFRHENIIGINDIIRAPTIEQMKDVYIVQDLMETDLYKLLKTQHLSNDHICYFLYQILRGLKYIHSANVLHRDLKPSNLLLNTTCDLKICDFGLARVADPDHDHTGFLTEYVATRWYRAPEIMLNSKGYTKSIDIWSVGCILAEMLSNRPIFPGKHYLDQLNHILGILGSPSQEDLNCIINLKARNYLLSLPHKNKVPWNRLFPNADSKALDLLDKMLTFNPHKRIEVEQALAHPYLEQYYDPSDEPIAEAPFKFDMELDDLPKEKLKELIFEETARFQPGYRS

For `C[C@@H](NC(=O)Nc1cc2[nH]nc(NS(=O)(=O)C3CCC3)c2cn1)c1ccccc1` [Example 53, N-[6-({[(1R)-1-phenylethyl]carbamoyl}amino)-1H-pyrazolo[4,3-c]pyridin-3-yl]cyclobutanesulfonamide], the IC50 under setting [1] is 424 nM.
On to `COCCS(=O)(=O)Nc1n[nH]c2cc(NC(=O)N[C@H](C)c3ccccc3)ncc12` [Example 54, 2-methoxy-N-[6-({[(1R)-1-phenylethyl]carbamoyl}amino)-1H-pyrazolo[4,3-c]pyridin-3-yl]ethanesulfonamide], for which the IC50 under setting [1] came out at 810 nM.
`C[C@@H](NC(=O)Nc1cc2[nH]nc(NS(=O)(=O)CC3CC3)c2cn1)c1ccccc1` [Example 55, 1-cyclopropyl-N-[6-({[(1R)-1-phenylethyl]carbamoyl}amino)-1H-pyrazolo[4,3-c]pyridin-3-yl]methanesulfonamide]: under setting [1], the IC50 came out at 88.8 nM.
The same measure, in the same setting: the same measure for `C[C@@H](NC(=O)Nc1cc2[nH]nc(NS(=O)(=O)C3CNC3)c2cn1)c1ccccc1` [Example 56]: 191 nM; for `CCNc1n[nH]c2c(F)c(NC(=O)N[C@H](C)c3ccccc3)ncc12` [Example 57, (R)-1-(3-(Ethylamino)-7-fluoro-1H-pyrazolo[4,3-c]pyridin-6-yl)-3-(1-phenylethyl)urea]: 3.05 nM; for `CC(=O)Nc1n[nH]c2c(F)c(NC(=O)N[C@H](C)c3ccccc3)ncc12` [Example 58, (R)—N-(7-Fluoro-6-(3-(1-phenylethyl)ureido)-1H-pyrazolo[4,3-c]pyridin-3-yl)acetamide]: 6.43 nM.
The same measure, in the same setting: the same measure for `C[C@@H](NC(=O)Nc1ncc2c(N)n[nH]c2c1F)c1ccccc1` [Example 59, (R)-1-(3-Amino-7-fluoro-1H-pyrazolo[4,3-c]pyridin-6-yl)-3-(1-phenylethyl)urea]: 6.47 nM; for `CCNc1n[nH]c2c(C)c(NC(=O)N[C@H](C)c3ccccc3)ncc12` [Example 60, (R)-1-(3-(Ethylamino)-7-methyl-1H-pyrazolo[4,3-c]pyridin-6-yl)-3-(1-phenylethyl)urea]: 38.8 nM.
On to `Cc1ccc(Nc2n[nH]c3cc(NC(=O)N[C@H](C)c4ccccc4)ncc23)cn1` [Example 61, 1-{3-[(6-methylpyridin-3-yl)amino]-1H-pyrazolo[4,3-c]pyridin-6-yl}-3-[(1R)-1-phenylethyl]urea], for which the IC50 under setting [2] was 8.8 nM.
Same read-out and setting: the same measure for `Cc1cc(Nc2n[nH]c3cc(NC(=O)N[C@H](C)c4ccccc4)ncc23)ccn1` [Example 62, 1-{3-[(2-methylpyridin-4-yl)amino]-1H-pyrazolo[4,3-c]pyridin-6-yl}-3-[(1R)-1-phenylethyl]urea]: 14.7 nM; for `C[C@@H](NC(=O)Nc1cc2[nH]nc(N3CCc4scnc4C3)c2cn1)c1ccc(F)cc1` [Example 63, 1-[3-(6,7-dihydro[1,3]thiazolo-[4,5-c]pyridin-5(4H)-yl)-1H-pyrazolo[4,3-c]pyridin-6-yl]-3-[(1R)-1-(4-fluorophenyl)ethyl]-urea]: 5.8 nM.
Same read-out and setting: the value for `C[C@@H](O)[C@@H](NC(=O)Nc1cc2[nH]nc(N3CCc4scnc4C3)c2cn1)c1ccccc1` [Example 64, 1-[3-(6,7-dihydro[1,3]thiazolo-[4,5-c]pyridin-5(4H)-yl)-1H-pyrazolo[4,3-c]pyridin-6-yl]-3-[(1S,2R)-2-hydroxy-1-phenylpropyl]urea] was 5.6 nM; that for `COC(=O)N[C@H](C(=O)Nc1n[nH]c2cc(NC(=O)N[C@H](C)c3ccc(F)cc3)ncc12)C1CCOCC1` [Example 65, methyl [(1S)-2-{[6-({[(1R)-1-(4-fluoro-phenyl)ethyl]carbamoyl}-amino)-1H-pyrazolo[4,3-c]-pyridin-3-yl]amino}-2-oxo-1-(tetrahydro-2H-pyran-4-yl)-ethyl]carbamate] was 365 nM; that for `COC(=O)N[C@H](C(=O)Nc1n[nH]c2cc(NC(=O)N[C@H](C)c3ccc(F)cc3)ncc12)C(C)C` [Example 66, methyl [(1S)-1-{[6-({[(1R)-1-(4-fluoro-phenyl)ethyl]-carbamoyl}-amino)-1H-pyrazolo[4,3-c]-pyridin-3-yl]-carbamoyl}-2-methylpropyl]-carbamate] was 31.6 nM.
The same measure, in the same setting: the same measure for `CCNc1n[nH]c2cc(NC(=O)N[C@H](CO)c3ccccc3)ncc12` [Example 67, 1-[3-(ethylamino)-1H-pyrazolo[4,3-c]pyridin-6-yl]-3-[(1S)-2-hydroxy-1-phenylethyl]urea]: 0.7 nM; for `C[C@@H](NC(=O)Nc1cc2[nH]nc(N)c2c(CO)n1)c1ccccc1` [Example 68, (R)-1-(3-amino-4-(hydroxymethyl)-1H-pyrazolo[4,3-c]pyridin-6-yl)-3-(1-phenylethyl)urea]: 0.5 nM.
For the compound `COCc1nc(NC(=O)N[C@H](C)c2ccccc2)cc2[nH]nc(N)c12` [Example 69, (R)-1-(3-amino-4-(methoxymethyl)-1H-pyrazolo[4,3-c]pyridin-6-yl)-3-(1-phenylethyl)urea], the IC50 under setting [2] came to 1.5 nM.
As for `CCNc1n[nH]c2cc(NC(=O)N[C@H](C)c3ccccc3)nc(CO)c12` [Example 70, 1-[3-(ethylamino)-4-(hydroxymethyl)-1H-pyrazolo[4,3-c]-pyridin-6-yl]-3-[(1R)-1-phenylethyl]urea], under setting [2], the IC50 is 0.6 nM.
Still for that read-out and setting: the same measure for `CCNc1n[nH]c2cc(NC(=O)N[C@H](C)c3ccccc3)nc(COC)c12` [Example 71, (R)-1-(3-(ethylamino)-4-(methoxymethyl)-1H-pyrazolo[4,3-c]pyridin-6-yl)-3-(1-phenylethyl)urea]: 4.4 nM.
Same read-out and setting: the same measure for `COCc1nc(NC(=O)N[C@H](C)c2ccccc2)cc2[nH]nc(NC(C)=O)c12` [Example 72, (R)—N-(4-(methoxymethyl)-6-(3-(1-phenylethyl)ureido)-1H-pyrazolo[4,3-c]pyridin-3-yl)acetamide]: 106 nM; for `C[C@@H](NC(=O)Nc1cc2[nH]nc(NC3=CC(=O)CC3)c2cn1)c1ccccc1` [Example 73, (R)-1-(3-((3-oxocyclopent-1-en-1-yl)amino)-1H-pyrazolo[4,3-c]pyridin-6-yl)-3-(1-phenylethyl)urea]: 39.2 nM; for `C[C@@H](NC(=O)Nc1cc2[nH]nc(N[C@@H]3CCOC3)c2cn1)c1ccccc1` [Example 74, 1-[(1R)-1-phenylethyl]-3-{3-[(3R)-tetrahydro-furan-3-ylamino]-1H-pyrazolo[4,3-c]-pyridin-6-yl}urea]: 1.7 nM.
On the same count and under the same terms, the value for `COC[C@@H](NC(=O)Nc1cc2[nH]nc(N[C@@H]3CCOC3)c2cn1)c1ccccc1` [Example 75, 1-[(1S)-2-methoxy-1-phenylethyl]-3-{3-[(3R)-tetrahydro-furan-3-ylamino]-1H-pyrazolo[4,3-c]-pyridin-6-yl}urea] was 0.8 nM; that for `COC[C@@H](NC(=O)Nc1cc2[nH]nc(N[C@H]3CCOC3)c2cn1)c1ccccc1` [Example 76, 1-[(1S)-2-methoxy-1-phenylethyl]-3-{3-[(3S)-tetrahydro-furan-3-ylamino]-1H-pyrazolo[4,3-c]-pyridin-6-yl}urea] was 1.3 nM.
`C[C@@H](NC(=O)Nc1cc2[nH]nc(N[C@H]3CCOC3)c2cn1)c1ccccc1` [Example 77, 1-[(1R)-1-phenylethyl]-3-{3-[(3S)-tetrahydro-furan-3-ylamino]-1H-pyrazolo[4,3-c]-pyridin-6-yl}urea]: the IC50 under setting [2] is 2.1 nM.
The same measure, in the same setting: the value for `CC1CC(Nc2n[nH]c3cc(NC(=O)N[C@H](C)c4ccccc4)ncc23)C(C)O1` (stereo partly drawn) [Example 78, 1-(3-((2,5-dimethyltetrahydro-furan-3-yl)amino)-1H-pyrazolo[4,3-c]-pyridin-6-yl)-3-((R)-1-phenylethyl)urea] was 7.4 nM; that for `C[C@@H](NC(=O)Nc1cc2[nH]nc(N3CC(O)C3)c2cn1)c1ccccc1` [Example 79, 1-[3-(3-hydroxy-azetidin-1-yl)-1H-pyrazolo[4,3-c]-pyridin-6-yl]-3-[(1R)-1-phenylethyl]urea] was 9.7 nM.
Turning to `COC[C@@H](NC(=O)Nc1cc2[nH]nc(N3CC(O)C3)c2cn1)c1ccccc1` [Example 80, 1-[3-(3-hydroxy-azetidin-1-yl)-1H-pyrazolo[4,3-c]-pyridin-6-yl]-3-[(1S)-2-methoxy-1-phenylethyl]urea], the IC50 under setting [2] was determined as 5.5 nM.
For the compound `COCC1CN(c2n[nH]c3cc(NC(=O)N[C@H](C)c4ccccc4)ncc23)C1` [Example 81, 1-{3-[3-(methoxy-methyl)azetidin-1-yl]-1H-pyrazolo[4,3-c]-pyridin-6-yl}-3-[(1R)-1-phenylethyl]-urea], the IC50 under setting [2] was determined as 8.5 nM.
On the same count and under the same terms, the value for `COCC1CN(c2n[nH]c3cc(NC(=O)N[C@H](COC)c4ccccc4)ncc23)C1` [Example 82, 1-{3-[3-(methoxy-methyl)azetidin-1-yl]-1H-pyrazolo[4,3-c]-pyridin-6-yl}-3-[(1S)-2-methoxy-1-phenylethyl]urea] was 3.7 nM.
Still for that read-out and setting: the same measure for `C[C@@H](NC(=O)Nc1cc2[nH]nc(N3CC(CO)C3)c2cn1)c1ccccc1` [Example 83, 1-{3-[3-(hydroxyl-methyl)azetidin-1-yl]-1H-pyrazolo[4,3-c]-pyridin-6-yl}-3-[(1R)-1-phenylethyl]-urea]: 2.7 nM.
The same measure, in the same setting: the same measure for `C[C@@H](NC(=O)Nc1cc2[nH]nc(N[C@@H]3COC[C@@H]3F)c2cn1)c1ccccc1` [Example 84, 1-(3-{[(3R,4R)-4-fluorotetrahydrofuran-3-yl]amino}-1H-pyrazolo[4,3-c]-pyridin-6-yl)-3-[(1R)-1-phenylethyl]urea]: 4.4 nM; for `C[C@@H](NC(=O)Nc1cc2[nH]nc(N[C@H]3COC[C@H]3F)c2cn1)c1ccccc1` [Example 85, 1-(3-{[(3S,4S)-4-fluorotetrahydrofuran-3-yl]amino}-1H-pyrazolo[4,3-c]-pyridin-6-yl)-3-[(1R)-1-phenylethyl]urea]: 0.8 nM.

Usually IC50 stands for the concentration needed to halve the response being measured.
